Measurements published in article PMC5008373, “Pantoprazole, an FDA-approved proton-pump inhibitor, suppresses colorectal cancer growth by targeting T-cell-originated protein kinase” (Oncotarget, 2016).
One block for each molecule: values may come before it.

Columns and labels:
Assay type in all cases: binding
[1] = target: T1, T-cell-originated protein kinase (TOPK) (Homo sapiens, UniProt Q96KB5); assay: biochemical
T1 construct: gene PBK
T1 sequence (Q96KB5 1-322): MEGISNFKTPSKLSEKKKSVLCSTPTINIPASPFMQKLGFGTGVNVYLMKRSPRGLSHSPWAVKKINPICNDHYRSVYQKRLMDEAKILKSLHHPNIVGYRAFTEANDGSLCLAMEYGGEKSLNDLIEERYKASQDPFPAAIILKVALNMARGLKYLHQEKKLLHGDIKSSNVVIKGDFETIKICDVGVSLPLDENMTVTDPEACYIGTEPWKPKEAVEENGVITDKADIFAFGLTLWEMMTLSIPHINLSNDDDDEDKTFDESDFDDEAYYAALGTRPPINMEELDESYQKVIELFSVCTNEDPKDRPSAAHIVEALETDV

[2] = target: T1, T-cell-originated protein kinase (TOPK); assay: microscale thermophoresis with labeled recombinant TOPK (reference inhibitor); conditions: read-out: Dissociation constant with TOPK / Kd^b
[3] = target: T1, T-cell-originated protein kinase (TOPK); assay: microscale thermophoresis with labeled recombinant TOPK; also in vitro kinase assay (histone H3 phosphorylation); conditions: read-out: Dissociation constant with TOPK / Kd^b
[4] = read-out: Dissociation constant with TOPK / Kd^b

Kd [2]: 327 ± 62.7 µM
Structure (SMILES): N#Cc1c2nc3ccccc3nc2n2ccc(NC(=O)c3cccs3)cc12 [HI-TOPK-032]

Kd [3]: 24.2 ± 2.3 µM
Structure (SMILES): COc1ccnc(C[S+]([O-])c2nc3ccc(OC(F)F)cc3[nH]2)c1OC (centres unmarked) [Pantoprazole]

Kd [1, 4]: 226 ± 29.5 µM
Structure (SMILES): CC(=O)Nc1ccc(OCC(O)CNC(C)C)cc1 (centres unmarked) [Practolol]

Second part, the molecule before the results:

Structure (SMILES): NC(CO)C(=O)NNCc1ccc(O)c(O)c1O (centres unmarked) [Benserazide]
Kd [1, 4]: 477 ± 19.9 µM

Structure (SMILES): O=C(O)c1cc(/N=N/c2ccc(S(=O)(=O)Nc3ccccn3)cc2)ccc1O [Sulfasalazine]
Kd [1]: 339 ± 7.7 µM
